Measured values: article PMC4627231, “Targeting the sugar metabolism of tumors with a first-in-class 6-phosphofructo-2-kinase (PFKFB4) inhibitor” (Oncotarget, 2015)

Experiments:
[1] = test system: Lewis lung carcinomas (LLC); assay: Lewis lung carcinoma tumor growth in syngeneic mice; type: in vivo, C57BL/6 mice; details: 120 mg/kg daily by gavage
Protocol: For xenograft studies, LLC or H460 cells collected from exponential growth phase culture were washed and resuspended in PBS. Groups of female C57BL/6 mice were injected with LLC cells (n=10 per group, s.c., 1×10^6 cells) and groups of female BALB/c athymic mice (Charles River) were injected with H460 cells (n=10 per group, s.c, 5 × 10^6 cells). Tumor masses were determined in a blinded fashion with Vernier calipers using the formula: mass (mg) = (width, mm)^2 X (length, mm)/2 as previously described. When tumor masses were 150-200 mg, mice were randomized to daily DMSO or 5MPN (in 30% Captisol, 100 μl, by gavage). Tumor measurements and body weights were followed daily. All data are expressed as the mean ± SD of two experiments. Statistical significance was assessed by the two-sample t test (independent variable).

[2] = test system: intratumoral F2,6BP, LLC xenografts; assay: Intratumoral F2,6BP in LLC tumors; type: in vivo, C57BL/6 mice; details: after 10 days of treatment, one hour after dose by gavage
Protocol: Cells or tissues were prepared as previously described and F2,6BP content measured using a coupled enzyme reaction following the method of Van Schaftingen et al and normalized to total cellular protein measured by the bicinchoninic acid assay (Thermo Scientific). All data are expressed as the mean ± SD of three experiments. Statistical significance was assessed by the two-sample t test (independent variable).
At the end of the experiment, one hour after a single dose of DMSO or 5MPN, animals were euthanized, tumors removed and sections fixed in 10% formaldehyde for immunohistochemistry or snap-frozen in liquid nitrogen for analyses. Subsets of tumor-bearing mice (n=3) were administered a single dose of either DMSO or 5MPN one hour prior to imaging then injected i.p. with 2-[^18F]-fluoro-2-deoxyglucose (FDG, 150μCi, 100 μl) and, 45 min after FDG injection, were anesthetized with 2% isoflurane in oxygen and transferred to a R-4 Rodent Scanner (CTI Concorde Microsystems) micro-positron emission tomograph to capture images as previously described. Regions of interest in the tumors and cerebellum were quantified in quadruplicate and expressed as the mean ± SD of the ratio of tumor:cerebellar FDG uptake. Animal experiments were approved by the University of Louisville Institutional Animal Care and Use Committee.

With `COc1cccc2c(NCCCCCO[N+](=O)[O-])ccnc12` [Compound 5MPN, 5-(n-(8-methoxy-4-quinolyl)amino)pentyl nitrate] as the compound, how does the tumor growth ([1]; LLC in syngeneic C57BL/6 mice) read?
The tumor growth was “suppressed the growth”.

And the body weight ([1]; LLC-bearing C57BL/6 mice)?
Its body weight is “without affecting body weight”.

What about the “intratumoral F2,6BP” value [2] of the same compound?
Its value is “marked reduction”.
